Source: article PMC13064039, “Exploring the binding interaction of rupatadine with bovine serum albumin using multi-spectroscopic and molecular modeling approaches” (BMC Chemistry, 2026)

Columns and labels:
[1] = target: T1, bovine serum albumin (BSA) (Bos taurus, UniProt P02769); assay: Fluorescence quenching of BSA by RUPA (Stern-Volmer, modified Stern-Volmer, van't Hoff analysis); type: binding; conditions: for Ksv (Stern-Volmer quenching constant): BSA 2 µM, RUPA 0-100 µM
Method: The fluorescence data were corrected for the inner filter effect (IFE) according to the Lakowicz method to ensure that the obtained binding parameters were not impacted by absorption artifacts.
To account for the possible influence of inner filter effects (IFE), the fluorescence intensities were corrected using the following formula (Eq. 1): 1
The process of fluorescence quenching was determined using the Stern-Volmer equation (Eq. 2): 2
The KSV and Kq values were determined by the graph of F0/F against [Q]
Stoichiometric analysis is used to define the various equilibria for a macromolecule’s binding of a ligand by binding sites (n). The number of binding sites (n) and the binding constant (Kb) were calculated using the modified Stern–Volmer equation (Eq. 3). 3
The thermodynamic characteristics of the binding reaction serve as the primary evidence for the binding force. Hydrogen bonds, hydrophobic forces, electrostatic interactions, van der Waals interactions, and other binding forces could all be present between small molecules and biomacromolecules. The temperature dependence of the binding constant was thus measured for this purpose at three distinct temperatures: 303, 310, and 318 K (Fig. 4).
The Gibbs–Helmholtz equation provided below was used to assess the free energy change (ΔG) value (Eq. 5).

[2] = target: T1, bovine serum albumin (BSA); assay: Competitive binding analysis using site probes (phenylbutazone site I, diazepam site II); conditions: site marker competition
Method: Phenylbutazone and diazepam are the site probes for sites Ⅰ and Ⅱ, respectively. The BSA and site probe concentrations in this experiment were maintained at 2 µM and 10 µM, respectively. Rupatadine concentrations ranged from 10 to 100 µM. After excitation at 279 nm, fluorescence intensity measurements were made at 341 nm. At 303 K, measurements were made.

[3] = target: T1, bovine serum albumin (BSA); assay: Synchronous fluorescence of BSA with RUPA; type: binding; conditions: RUPA 0-100 µM, BSA 2 µM, 303 K
From the text: Using synchronous fluorescence, the influence of the ligand on the protein has been thoroughly investigated. The distinctive details regarding the protein’s Tyr and Trp residues can be gained by fixing the scanning interval (∆λ) between the excitation and emission wavelengths at 15 and 60 nm, respectively.

[4] = target: T1, bovine serum albumin (BSA); assay: FT-IR spectroscopy of BSA with and without RUPA; conditions: BSA 2 µM + RUPA 40 µM, pH 7.4, 303 K; free BSA 1646
[5] = design: method as in PMID 23160091; conditions: cited from earlier work
[6] = system: ovarian cancer cells (platelet-activating factor receptor); design: method as in PMID 34571986; conditions: in vitro; targets the platelet-activating factor receptor; cited from earlier work

T1 sequence (P02769 25-607): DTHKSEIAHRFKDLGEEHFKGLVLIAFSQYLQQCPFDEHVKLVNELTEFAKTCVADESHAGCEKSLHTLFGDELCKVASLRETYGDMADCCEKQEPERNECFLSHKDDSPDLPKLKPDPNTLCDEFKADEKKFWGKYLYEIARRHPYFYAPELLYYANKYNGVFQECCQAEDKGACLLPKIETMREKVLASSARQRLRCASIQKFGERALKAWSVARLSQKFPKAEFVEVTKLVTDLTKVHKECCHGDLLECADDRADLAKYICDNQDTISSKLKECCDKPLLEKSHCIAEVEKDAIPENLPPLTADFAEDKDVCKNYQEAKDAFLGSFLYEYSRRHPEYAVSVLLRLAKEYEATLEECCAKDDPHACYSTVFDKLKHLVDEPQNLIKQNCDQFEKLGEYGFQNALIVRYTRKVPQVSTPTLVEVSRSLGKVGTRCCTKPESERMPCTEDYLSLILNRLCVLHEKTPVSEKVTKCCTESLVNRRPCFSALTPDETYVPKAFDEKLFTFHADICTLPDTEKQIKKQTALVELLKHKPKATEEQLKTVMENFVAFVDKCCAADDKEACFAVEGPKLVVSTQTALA

- n (number of binding sites) ([1]; 303 K): 0.57
- Ksv (Stern-Volmer quenching constant) ([1]; 303 K, pH 7.4): 1.07 × 10^4 L.mol^− 1
- n (number of binding sites) ([1]; 310 K): 0.83
- Ksv (Stern-Volmer quenching constant) ([1]; 310 K, pH 7.4): 0.82 × 10^4 L.mol^− 1
- Kq (quenching rate constant) ([1]; 310 K, τ0 = 10^-8 s): 0.82 × 10^12 L.mol^− 1.s^− 1
- n (number of binding sites) ([1]; 318 K): 1.06
- Ksv (Stern-Volmer quenching constant) ([1]; 318 K, pH 7.4): 0.48 × 10^4 L.mol^− 1
- ∆G^o (Gibbs free energy change) ([1]; pH 7.4, 303 K): -3.4823 kcal/mol
- ∆G^o (Gibbs free energy change) ([1]; pH 7.4, 318 K): -5.2287 kcal/mol
- ∆H^o (enthalpy change) ([1]; pH 7.4, van't Hoff, 303-318 K): 31.7935 kcal/mol
- ∆S^o (entropy change) ([1]; pH 7.4, van't Hoff, 303-318 K): 0.487 KJ mol^− 1 K^− 1
- enthalpy change (ΔH) ([1]; within the examined temperature range): 133.024 kJ mol^− 1
- binding site of RUPA on BSA [2]: site I
- shift in synchronous fluorescence ([3]; ∆λ = 15 nm (Tyr)): no shift
- red shift of ∆λmax in synchronous fluorescence ([3]; ∆λ = 60 nm (Trp)): about 2 nm
- amide I peak location of BSA following the RUPA reaction [4]: 1642 cm^− 1
Compound: Cc1cncc(CN2CCC(=C3c4ccc(Cl)cc4CCc4cccnc43)CC2)c1 [RUPA, 13-chloro-2-[1-[(5-methylpyridin-3-yl)methyl]piperidin-4-ylidene]−4-azatricyclo [9.4.0.03,8] pentadeca-1(11),3(8),4,6,12,14-hexaene]
- attached to plasma proteins [5]: approximately 99%
- effect on ovarian cancer cell proliferation and migration [6]: prevent ovarian cancer cells from proliferating and migrating
